Values quoted from earlier work in US20070098804A1, “Solid particulate tadalafil having a bimodal particle size distribution” (priority 2005, published 2007).

Details: crystalline solid, reported in the PDR

solubility in water: practically insoluble in water
Compound: CN1CC(=O)N2[C@H](c3ccc4c(c3)OCO4)c3[nH]c4ccccc4c3C[C@@H]2C1=O [Tadalafil]
